Laboratory results taken from the Kinase Knowledgebase extract (Sharma et al. 2016).

Biological target: MAPK14 (human) (UniProt Q16539)
Assay: Assessment of MAPK14 Kinase Activity

Sequence of MAPK14 (human) (Q16539 whole entry, looked up): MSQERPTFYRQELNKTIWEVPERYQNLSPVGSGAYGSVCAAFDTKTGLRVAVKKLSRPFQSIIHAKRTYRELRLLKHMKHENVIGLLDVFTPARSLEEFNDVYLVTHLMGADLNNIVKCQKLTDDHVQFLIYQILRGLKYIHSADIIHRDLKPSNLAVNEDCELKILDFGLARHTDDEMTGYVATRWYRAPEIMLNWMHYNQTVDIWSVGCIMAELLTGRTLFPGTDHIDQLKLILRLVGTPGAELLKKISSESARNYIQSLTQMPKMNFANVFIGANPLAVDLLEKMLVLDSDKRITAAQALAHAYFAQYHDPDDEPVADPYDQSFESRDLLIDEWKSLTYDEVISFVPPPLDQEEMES

SMILES | IC50
Cc1ccc(NC(=O)Nc2cc(C(C)(C)C)sc2C(=O)N2CCN(C)C(=O)C2(C)C)cc1-c1ccc(CN2CCOCC2)nc1 | < 100 nM
Cc1ccc(NC(=O)Nc2sc(C(C)(C)C)cc2C(=O)N2CCN(C(=O)CN(C)C)CC2)cc1-c1cccnc1 | 100 to 1000 nM
Cc1cc(NC(=O)Nc2cc(C(C)(C)C)sc2C(=O)N2CCNC(=O)C2(C)C)cc(-c2ccc(N3CCOCC3)cn2)c1 | < 100 nM
Cc1ccc(NC(=O)Nc2cn(C(C)(C)C)nc2C(=O)N2CCNC(=O)C2(C)C)cc1-c1ccc(N2CCOCC2)nc1 | < 100 nM
CCc1ccc(-c2cc(NC(=O)Nc3cn(C(C)(C)C)nc3C(=O)N3CCNC(=O)C3(C)C)ccc2C)cn1 | < 100 nM
CCc1ccc(-c2cc(NC(=O)Nc3sc(C(C)(C)C)cc3C(=O)N3CCNC(=O)C3(C)C)cc(F)c2C)cn1 | < 100 nM
Cc1ccc(NC(=O)Nc2sc(C(C)(C)C)cc2C(=O)N2CCNC(=O)C2(C)C)cc1-c1cc[n+]([O-])cc1 | < 100 nM
Cc1ccc(NC(=O)Nc2cn(C(C)(C)C)nc2C(=O)N2CCN(C)C(=O)C2(C)C)cc1-c1ccc(CN2CCOCC2)nc1 | < 100 nM
Cc1ccc(NC(=O)Nc2sc(C(C)(C)C)cc2C(=O)N2CCN(C)C(=O)C2(C)C)cc1-c1ccc(CN2CCN(C)CC2)nc1 | < 100 nM
Cc1ccc(NC(=O)Nc2sc(C(C)(C)C)cc2C(=O)N2CCNC(=O)C2(C)C)cc1-c1cnc(N2CCOCC2)nc1 | < 100 nM
CCc1ccc(-c2cc(NC(=O)Nc3sc(C(C)(C)C)cc3C(=O)N3CCN(C)C(=O)C3(C)C)cc(F)c2C)cn1 | < 100 nM
CC(C)(C)c1cc(C(=O)N2CCNC(=O)C2(C)C)c(NC(=O)Nc2cccc(-c3cnco3)c2)s1 | < 100 nM
CCc1ccc(-c2cc(NC(=O)Nc3cn(C(C)(C)C)nc3C(=O)N3CCN(C)C(=O)C3(C)C)ccc2C)cn1 | < 100 nM
CCNC(=O)c1ccc(-c2cc(NC(=O)Nc3cn(C(C)(C)C)nc3C(=O)N3CCNC(=O)C3(C)C)ccc2C)cn1 | < 100 nM
Cc1ccc(NC(=O)Nc2sc(C(C)(C)C)cc2C(=O)N2CCNC(=O)C2(C)C)cc1C#CCOCCN1CCOCC1 | < 100 nM
Cc1nnc(-c2ccc(-c3cc(NC(=O)Nc4sc(C(C)(C)C)cc4C(=O)N4CCN(C)C(=O)C4(C)C)ccc3C)cn2)o1 | < 100 nM
Cc1ccc(NC(=O)Nc2sc(C(C)(C)C)cc2C(=O)N2CCNC(=O)C2(C)C)cc1-c1ccc(N2CCOCC2)nc1 | < 100 nM
Cc1ccc(NC(=O)Nc2sc(C(C)(C)C)cc2C(=O)N2CCNC(=O)C2(C)C)cc1-c1ccc(N2CCC(N)C2)nc1 (centres undefined) | < 100 nM
CCc1ccc(-c2cc(NC(=O)Nc3cc(C(C)(C)C)sc3C(=O)N3CCN(C)C(=O)C3(C)C)ccc2C)cn1 | < 100 nM
CCc1ccc(-c2cc(NC(=O)Nc3sc(C(C)(C)C)cc3C(=O)N3CCN(CCN(C)C)C(=O)C3(C)C)ccc2C)cn1 | 100 to 1000 nM
COc1ccc(-c2ccc(C)c(NC(=O)Nc3sc(C(C)(C)C)cc3C(=O)N3CCNC(=O)C3(C)C)c2)cn1 | < 100 nM
Cc1ccc(NC(=O)Nc2cc(C(C)(C)C)sc2C(=O)N2CCN(C)C(=O)C2(C)C)cc1-c1ccc(N2CCOCC2)nc1 | < 100 nM
CC(C)(C)c1cc(C(=O)N2CCNC(=O)C2(C)C)c(NC(=O)Nc2cccc(-c3ccncc3)c2)s1 | < 100 nM
Cc1ccc(NC(=O)Nc2sc(C(C)(C)C)cc2C(=O)N2CCNC(=O)C2(C)C)cc1-c1c(C)noc1C | < 100 nM
COc1ccc(-c2cc(NC(=O)Nc3sc(C(C)(C)C)cc3C(=O)N3CCN(C)C(=O)C3(C)C)cc(F)c2C)cn1 | < 100 nM

The next lines start with the values.

IC50 | SMILES
< 100 nM | COc1ccc(NC(=O)Nc2sc(C(C)(C)C)cc2C(=O)N2CCNC(=O)C2(C)C)cc1-c1ccncc1
< 100 nM | Cc1ccc(NC(=O)Nc2cc(C(C)(C)C)oc2C(=O)N2CCN(C)C(=O)C2(C)C)cc1-c1ccc(CN2CCOCC2)cn1
< 100 nM | CCOc1ccc(-c2cc(NC(=O)Nc3sc(C(C)(C)C)cc3C(=O)N3CCN(C)C(=O)C3(C)C)ccc2C)cn1
< 100 nM | Cc1ccc(NC(=O)Nc2sc(C(C)(C)C)cc2C(=O)N2CCNC(=O)C2(C)C)cc1-c1ccc(N2CCOCC2)cn1
< 100 nM | Cc1ccc(NC(=O)Nc2sc(C(C)(C)C)cc2C(=O)N2CCNC(=O)C2(C)C)cc1N1C(=O)CN(C)C1=O
< 100 nM | Cc1ccc(NC(=O)Nc2sc(C(C)(C)C)cc2C(=O)N2CCNC(=O)C2(C)C)cc1-c1ccc(OCCCN(C)C)nc1
< 100 nM | Cc1ccc(NC(=O)Nc2sc(C(C)(C)C)cc2C(=O)N2CCNC(=O)C2(C)C)cc1-c1ccc(OC2CCOCC2)nc1
< 100 nM | Cc1ccc(NC(=O)Nc2cc(C(C)(C)C)sc2C(=O)N2CCNC(=O)C2(C)C)cc1-c1ccc(CN2CCOCC2)nc1
< 100 nM | Cc1ccc(NC(=O)Nc2sc(C(C)(C)C)cc2C(=O)N2CCNC(=O)C2(C)C)cc1-c1ccc(CN2CCOCC2)nc1
< 100 nM | Cc1ccc(NC(=O)Nc2cc(C(C)(C)C)oc2C(=O)N2CCNC(=O)C2(C)C)cc1-c1ccc(OCCN(C)C)nc1
< 100 nM | CN(C)CCCOc1ccc(-c2cccc(NC(=O)Nc3sc(C(C)(C)C)cc3C(=O)N3CCNC(=O)C3(C)C)c2)cn1
< 100 nM | CCNC(=O)c1ccc(-c2cc(NC(=O)Nc3cc(C(C)(C)C)oc3C(=O)N3CCN(C)C(=O)C3(C)C)ccc2C)cn1
< 100 nM | Cc1ccc(NC(=O)Nc2sc(C(C)(C)C)cc2C(=O)N2CCN(C)C(=O)C2(C)C)cc1-c1ccc(CN2CCOCC2)cn1
< 100 nM | Cc1ccc(NC(=O)Nc2cn(C(C)(C)C)nc2C(=O)N2CCN(C)C(=O)C2(C)C)cc1-c1ccc(C(C)C)nc1
< 100 nM | Cc1ccc(NC(=O)Nc2sc(C(C)(C)C)cc2C(=O)N2CCN(C)C(=O)C2(C)C)cc1-c1ccc(C(C)(C)O)nc1
< 100 nM | Cc1ccc(NC(=O)Nc2sc(C(C)(C)C)cc2C(=O)N2CCN(C)C(=O)C2(C)C)cc1-c1ccc(C[N+]2([O-])CCOCC2)nc1
< 100 nM | Cc1ccc(NC(=O)Nc2sc(C(C)(C)C)cc2C(=O)N2CCNC(=O)C2(C)C)cc1C#N
< 100 nM | CCc1ccc(-c2cc(NC(=O)Nc3cc(C(C)(C)C)sc3C(=O)N3CCN(C)C(=O)C3(C)C)cc(F)c2C)cn1
< 100 nM | CCN(CC)Cc1ccc(-c2cc(NC(=O)Nc3sc(C(C)(C)C)cc3C(=O)N3CCN(C)C(=O)C3(C)C)ccc2C)cn1
100 to 1000 nM | Cc1ccc(NC(=O)Nc2sc(C(C)(C)C)cc2C(=O)N2CCN(C)C(=O)C2(C)C)cc1-c1ccc(C[N+]2([O-])CCOCC2)[n+]([O-])c1
< 100 nM | COCCOCC#Cc1cc(NC(=O)Nc2sc(C(C)(C)C)cc2C(=O)N2CCNC(=O)C2(C)C)ccc1C
< 100 nM | Cc1ccc(NC(=O)Nc2sc(C(C)(C)C)cc2C(=O)N2CCNC(=O)C2(C)C)cc1C#CCN1CCOCC1
< 100 nM | Cc1ccc(NC(=O)Nc2cn(C(C)(C)C)nc2C(=O)N2CCN(C)C(=O)C2(C)C)cc1-c1ccc(CN2CCOCC2)cn1
< 100 nM | Cc1ccc(NC(=O)Nc2sc(C(C)(C)C)cc2C(=O)N2CCNC(=O)C2(C)C)cc1-c1ncccn1
< 100 nM | CCNC(=O)c1ccc(-c2cc(NC(=O)Nc3cn(C(C)(C)C)nc3C(=O)N3CCN(C)C(=O)C3(C)C)ccc2C)cn1
< 100 nM | Cc1ccc(NC(=O)Nc2sc(C(C)(C)C)cc2C(=O)N2CCNC(=O)C2(C)C)cc1-c1ccc(OCCCc2ccccn2)nc1
< 100 nM | Cc1ccc(NC(=O)Nc2sc(C(C)(C)C)nc2C(=O)N2CCN(C)C(=O)C2(C)C)cc1-c1ccc(CN2CCOCC2)nc1
< 100 nM | Cc1ccc(NC(=O)Nc2sc(C(C)(C)C)cc2C(=O)N2CCNC(=O)C2(C)C)cc1-c1ccc(OCCN2CCNCC2)nc1
< 100 nM | CCNC(=O)c1ccc(-c2cc(NC(=O)Nc3sc(C(C)(C)C)nc3C(=O)N3CCN(C)C(=O)C3(C)C)ccc2C)cn1
